The target of test [1] is T1, Tyrosine-protein kinase BTK (Homo sapiens, UniProt Q06187). Put plainly: Inhibition of BTK (unknown origin).
Test [2] concerns the target Receptor tyrosine-protein kinase erbB-4 (Homo sapiens, UniProt Q15303). Put plainly: Inhibition of ErbB4/HER4 (unknown origin).
The target of test [3] is T1, Tyrosine-protein kinase BTK. Put plainly: Binding affinity to BTK (unknown origin) assessed as residence time.
The target of test [4] is Ribosomal protein S6 kinase alpha-3 (Homo sapiens, UniProt P51812). The experiment in a line: Binding affinity to RPS6KA3 (unknown origin).
Chain of Ribosomal protein S6 kinase alpha-3 (P51812 whole entry): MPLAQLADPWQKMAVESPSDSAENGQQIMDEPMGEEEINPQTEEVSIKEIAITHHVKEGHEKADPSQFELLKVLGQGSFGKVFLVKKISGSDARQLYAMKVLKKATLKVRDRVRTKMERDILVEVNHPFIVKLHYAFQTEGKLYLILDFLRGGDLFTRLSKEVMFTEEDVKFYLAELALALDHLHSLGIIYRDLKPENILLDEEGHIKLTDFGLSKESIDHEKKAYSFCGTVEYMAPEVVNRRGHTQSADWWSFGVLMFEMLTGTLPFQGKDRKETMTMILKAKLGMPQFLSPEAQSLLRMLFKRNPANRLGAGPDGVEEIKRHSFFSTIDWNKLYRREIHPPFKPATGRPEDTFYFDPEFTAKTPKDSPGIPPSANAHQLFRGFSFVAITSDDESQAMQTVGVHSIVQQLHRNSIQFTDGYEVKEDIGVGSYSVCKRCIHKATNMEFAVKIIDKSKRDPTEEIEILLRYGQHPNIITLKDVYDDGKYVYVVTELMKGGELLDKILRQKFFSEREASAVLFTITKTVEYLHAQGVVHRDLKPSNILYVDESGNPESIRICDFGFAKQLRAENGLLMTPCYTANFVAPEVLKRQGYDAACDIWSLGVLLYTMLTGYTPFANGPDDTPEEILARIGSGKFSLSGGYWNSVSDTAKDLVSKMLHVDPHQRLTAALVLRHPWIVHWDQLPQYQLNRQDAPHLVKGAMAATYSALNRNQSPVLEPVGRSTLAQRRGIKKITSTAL
The species entered for test [5] is Homo sapiens. The experiment in a line: Selectivity for BTK (unknown origin) over EGFR (unknown origin).
The species entered for test [6] is Homo sapiens. The experiment in a line: Selectivity for BTK (unknown origin) over JAK3 (unknown origin).
The species entered for test [7] is Homo sapiens. Put plainly: Selectivity for BTK (unknown origin) over ITK (unknown origin).
For test [8], the target named is T2, Tyrosine-protein kinase Tec (Homo sapiens, UniProt P42680).
T2 sequence (P42680 whole entry): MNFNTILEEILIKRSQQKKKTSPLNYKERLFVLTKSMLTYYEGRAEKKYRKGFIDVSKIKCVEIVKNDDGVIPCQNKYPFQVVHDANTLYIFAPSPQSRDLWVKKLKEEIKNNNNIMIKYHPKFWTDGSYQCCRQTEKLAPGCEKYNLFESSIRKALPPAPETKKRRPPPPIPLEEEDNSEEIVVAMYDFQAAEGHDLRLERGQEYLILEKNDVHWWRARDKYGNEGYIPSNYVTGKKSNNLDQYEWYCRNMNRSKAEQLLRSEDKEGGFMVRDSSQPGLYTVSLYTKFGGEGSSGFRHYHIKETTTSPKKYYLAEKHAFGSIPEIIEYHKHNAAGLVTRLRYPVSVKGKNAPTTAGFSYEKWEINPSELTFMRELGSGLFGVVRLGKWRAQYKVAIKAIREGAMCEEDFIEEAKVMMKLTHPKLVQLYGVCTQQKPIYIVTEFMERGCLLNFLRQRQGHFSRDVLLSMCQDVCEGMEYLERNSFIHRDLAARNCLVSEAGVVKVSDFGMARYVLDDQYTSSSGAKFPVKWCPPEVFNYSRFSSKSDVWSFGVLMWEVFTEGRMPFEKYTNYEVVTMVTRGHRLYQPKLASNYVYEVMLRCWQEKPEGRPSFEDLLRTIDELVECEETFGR
The experiment in a line: Inhibition of TEC (unknown origin).

The target in test [9] is Tyrosine-protein kinase Lyn (Homo sapiens, UniProt P07948). Put plainly: Inhibition of LYN (unknown origin).
Chain of Tyrosine-protein kinase Lyn (P07948 whole entry): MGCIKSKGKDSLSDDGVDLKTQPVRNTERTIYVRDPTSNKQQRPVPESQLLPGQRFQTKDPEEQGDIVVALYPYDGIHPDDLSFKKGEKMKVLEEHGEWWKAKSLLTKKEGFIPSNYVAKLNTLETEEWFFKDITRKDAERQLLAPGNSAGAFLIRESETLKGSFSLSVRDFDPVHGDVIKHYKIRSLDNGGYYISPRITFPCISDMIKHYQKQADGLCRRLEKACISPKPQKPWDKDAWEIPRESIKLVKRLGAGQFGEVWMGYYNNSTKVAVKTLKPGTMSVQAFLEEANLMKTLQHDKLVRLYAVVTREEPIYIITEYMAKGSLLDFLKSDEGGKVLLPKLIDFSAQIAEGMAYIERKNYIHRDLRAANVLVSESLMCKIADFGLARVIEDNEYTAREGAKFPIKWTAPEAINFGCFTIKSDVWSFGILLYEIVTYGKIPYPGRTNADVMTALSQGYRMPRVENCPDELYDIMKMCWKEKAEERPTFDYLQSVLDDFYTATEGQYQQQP
For test [10], the target named is T3, Tyrosine-protein kinase JAK3 (Homo sapiens, UniProt P52333).
T3 sequence (P52333 whole entry): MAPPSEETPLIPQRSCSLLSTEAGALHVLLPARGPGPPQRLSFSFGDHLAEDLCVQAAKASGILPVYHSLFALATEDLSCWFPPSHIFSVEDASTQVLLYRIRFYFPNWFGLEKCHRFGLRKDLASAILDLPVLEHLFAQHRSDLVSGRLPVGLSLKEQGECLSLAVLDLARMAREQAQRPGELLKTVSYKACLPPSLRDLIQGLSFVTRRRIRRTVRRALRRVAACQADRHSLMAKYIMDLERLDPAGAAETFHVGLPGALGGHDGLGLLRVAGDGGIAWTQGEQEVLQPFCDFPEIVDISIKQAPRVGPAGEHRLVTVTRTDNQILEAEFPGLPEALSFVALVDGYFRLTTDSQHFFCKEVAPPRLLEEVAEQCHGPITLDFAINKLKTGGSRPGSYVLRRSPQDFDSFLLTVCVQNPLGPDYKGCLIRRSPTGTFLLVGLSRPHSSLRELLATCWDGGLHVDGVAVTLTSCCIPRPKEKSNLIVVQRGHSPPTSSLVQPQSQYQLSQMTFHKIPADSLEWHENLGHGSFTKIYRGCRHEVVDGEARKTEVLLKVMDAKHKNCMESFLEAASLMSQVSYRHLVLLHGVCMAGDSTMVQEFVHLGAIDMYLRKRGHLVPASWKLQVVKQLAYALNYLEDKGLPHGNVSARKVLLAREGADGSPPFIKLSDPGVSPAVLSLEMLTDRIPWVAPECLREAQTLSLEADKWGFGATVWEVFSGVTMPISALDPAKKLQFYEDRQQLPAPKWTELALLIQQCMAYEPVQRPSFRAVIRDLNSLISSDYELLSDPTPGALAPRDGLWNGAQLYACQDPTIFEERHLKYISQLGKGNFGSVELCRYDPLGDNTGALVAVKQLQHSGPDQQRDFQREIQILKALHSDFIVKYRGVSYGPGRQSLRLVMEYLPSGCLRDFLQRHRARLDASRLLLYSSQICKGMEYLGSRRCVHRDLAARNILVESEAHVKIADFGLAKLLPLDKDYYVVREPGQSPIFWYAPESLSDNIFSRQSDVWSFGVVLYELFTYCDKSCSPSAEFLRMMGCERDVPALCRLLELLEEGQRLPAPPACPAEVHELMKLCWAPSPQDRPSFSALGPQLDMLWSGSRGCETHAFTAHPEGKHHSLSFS
Put plainly: Inhibition of JAK3 (unknown origin).

In test [11] the target is T1, Tyrosine-protein kinase BTK. Put plainly: Binding affinity to BTK in human Ramos cells assessed as protein occupancy at 20 hrs post compound wash out. It counts as cell-based.

Where only a bound is given, the exact number is not on record here.

T1 sequence (Q06187 whole entry): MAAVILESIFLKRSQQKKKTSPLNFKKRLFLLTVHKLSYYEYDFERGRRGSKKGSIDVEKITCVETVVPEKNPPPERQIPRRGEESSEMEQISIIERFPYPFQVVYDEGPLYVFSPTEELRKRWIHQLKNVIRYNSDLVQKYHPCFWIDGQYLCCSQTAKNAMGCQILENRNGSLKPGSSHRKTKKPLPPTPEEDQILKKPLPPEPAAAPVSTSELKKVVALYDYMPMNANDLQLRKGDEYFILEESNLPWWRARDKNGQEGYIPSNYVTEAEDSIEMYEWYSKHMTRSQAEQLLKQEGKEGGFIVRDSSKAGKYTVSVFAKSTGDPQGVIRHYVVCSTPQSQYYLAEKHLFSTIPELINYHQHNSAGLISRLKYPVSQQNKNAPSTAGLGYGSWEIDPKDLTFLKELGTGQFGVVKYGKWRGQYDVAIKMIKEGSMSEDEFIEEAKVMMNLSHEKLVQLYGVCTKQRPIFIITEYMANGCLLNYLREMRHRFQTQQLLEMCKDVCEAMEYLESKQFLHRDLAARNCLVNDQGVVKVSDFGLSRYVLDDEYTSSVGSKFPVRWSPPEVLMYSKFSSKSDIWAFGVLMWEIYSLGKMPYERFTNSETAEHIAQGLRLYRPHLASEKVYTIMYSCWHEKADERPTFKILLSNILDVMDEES
Chain of Receptor tyrosine-protein kinase erbB-4 (Q15303 whole entry): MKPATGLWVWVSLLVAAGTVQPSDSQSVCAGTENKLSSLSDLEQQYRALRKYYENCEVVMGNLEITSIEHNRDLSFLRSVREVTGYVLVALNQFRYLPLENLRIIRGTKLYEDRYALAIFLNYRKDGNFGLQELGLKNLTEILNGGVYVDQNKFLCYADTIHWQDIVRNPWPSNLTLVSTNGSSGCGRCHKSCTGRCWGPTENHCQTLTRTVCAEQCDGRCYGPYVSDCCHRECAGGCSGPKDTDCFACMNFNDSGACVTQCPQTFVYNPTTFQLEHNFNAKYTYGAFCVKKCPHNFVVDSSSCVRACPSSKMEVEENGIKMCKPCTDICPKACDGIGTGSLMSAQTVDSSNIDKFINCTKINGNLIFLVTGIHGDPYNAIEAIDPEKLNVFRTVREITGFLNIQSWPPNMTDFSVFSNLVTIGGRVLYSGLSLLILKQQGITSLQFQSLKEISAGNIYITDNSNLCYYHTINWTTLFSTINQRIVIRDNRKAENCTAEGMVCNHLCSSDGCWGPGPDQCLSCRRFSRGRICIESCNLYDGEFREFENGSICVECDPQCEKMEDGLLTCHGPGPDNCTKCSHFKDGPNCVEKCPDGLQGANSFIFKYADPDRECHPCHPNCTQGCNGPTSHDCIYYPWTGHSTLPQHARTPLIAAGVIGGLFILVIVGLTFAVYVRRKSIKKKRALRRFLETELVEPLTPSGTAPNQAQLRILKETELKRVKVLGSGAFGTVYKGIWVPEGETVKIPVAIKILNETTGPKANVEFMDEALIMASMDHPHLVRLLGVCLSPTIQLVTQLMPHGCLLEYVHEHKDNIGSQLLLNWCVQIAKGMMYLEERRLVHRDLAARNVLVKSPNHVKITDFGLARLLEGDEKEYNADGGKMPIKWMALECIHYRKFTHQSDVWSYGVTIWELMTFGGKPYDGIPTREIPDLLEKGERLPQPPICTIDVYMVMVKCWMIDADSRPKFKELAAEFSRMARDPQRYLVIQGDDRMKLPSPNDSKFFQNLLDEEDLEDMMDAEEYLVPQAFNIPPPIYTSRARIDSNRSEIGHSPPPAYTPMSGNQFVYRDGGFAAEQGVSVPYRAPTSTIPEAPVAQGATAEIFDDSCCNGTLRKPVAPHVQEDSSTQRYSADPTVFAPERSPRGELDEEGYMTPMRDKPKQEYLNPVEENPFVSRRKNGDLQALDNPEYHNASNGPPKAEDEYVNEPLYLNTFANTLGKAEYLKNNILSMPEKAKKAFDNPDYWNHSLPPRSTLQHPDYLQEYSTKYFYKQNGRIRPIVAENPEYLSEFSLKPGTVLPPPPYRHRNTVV

As for `C=CC(=O)Nc1cccc(Oc2nc(Nc3ccc(N4CCN(C)CC4)cc3)nc3ccoc23)c1` [POSELTINIB], 652 nM corresponded to half-maximal inhibition in test [1] (IC50).

As to `Cc1cc2[nH]ncc2cc1-c1cccc2c(N)c(C(N)=O)nnc12`, the midpoint of inhibition in [1], the IC50, lay at 2 nM.

With `CC(C)(/C=C(\C#N)C(=O)N1CCC[C@H](n2nc(-c3ccc(Oc4ccccc4)cc3F)c3c(N)ncnc32)C1)N1CCN(C2COC2)CC1`, in [2], it took 11.3 nM to reach half-maximal inhibition (IC50).

With `CN(C1COC1)C(C)(C)/C=C(\C#N)C(=O)N1CCC[C@H]1Cn1nc(-c2ccc(Oc3ccccc3)cc2F)c2c(N)ncnc21`, in [3], the TIME turned out to be 161 h. The Kd (as a rule, the constant that tells how readily two partners part at equilibrium) in test [4] worked out at 0.54 nM. For the same compound, the Selectivity ratio was more than 1000 in the test listed under Homo sapiens [5], more than 1000 in the test filed under Homo sapiens [6] and 60 in the test listed under Homo sapiens [7].

For `C=CC(=O)Nc1cccc(Nc2nc(Nc3ccc(OCCOC)cc3)ncc2F)c1` [SPEBRUTINIB], the figures for the IC50 in test [8] and in test [9] were 6.2 nM and 4400 nM, respectively.

For `CC(C)(C)/C=C(/C#N)C(=O)N1CCC[C@@H](n2nc(-c3ccc(Oc4ccccc4)cc3)c3c(N)ncnc32)C1`, the values for the IC50 in test [1] and in [10] were 4 nM and more than 5000 nM, respectively. The Occ in test [11] was determined as 55%.
